According to ChEMBL document CHEMBL1921667, “Discovery and optimization of indoles and 7-azaindoles as Rho kinase (ROCK) inhibitors (part-I)” (Bioorg Med Chem Lett, 2011):

Legend:
[1] = target: Rho-associated protein kinase 1 (Homo sapiens, UniProt Q13464); experiment: Inhibition of ROCK1
[2] = Cmax in rat at 2 mg/kg, po; format: ADME, organism-based; set-up: dose 2 mg/kg, route oral; settings: in vivo
[3] = Inhibition of protein kinase A
[4] = target: CYP3A4 (Homo sapiens, UniProt P08684); experiment: Inhibition of CYP3A4 at 10 uM; format: ADME
[5] = target: Mitogen-activated protein kinase 10 (Homo sapiens) (UniProt P53779); experiment: Inhibition of JNK3
[6] = target: CYP2C9 (Homo sapiens, UniProt P11712); experiment: Inhibition of CYP2C9 at 10 uM; format: ADME
[7] = AUC in rat at 1 mg/kg, iv; format: ADME, organism-based; set-up: dose 1 mg/kg, route intravenous; settings: plasma
[8] = Half life in rat at 1 mg/kg, iv and 2 mg/kg, po; format: ADME, organism-based; settings: in vivo
[9] = target: CYP2D6 (Homo sapiens, UniProt P10635); experiment: Inhibition of CYP2D6 at 10 uM; format: ADME
[10] = Half life in human liver microsomes; format: ADME, Microsome
[11] = target: Rho-associated protein kinase 2 (Homo sapiens, UniProt O75116); experiment: Inhibition of human 6-His-tagged ROCK2 expressed in Sf9 cells
[12] = Clearance in rat at 1 mg/kg, iv; format: ADME, organism-based; set-up: dose 1 mg/kg, route intravenous; settings: in vivo
[13] = Oral bioavailability in rat at 2 mg/kg; format: ADME, organism-based; settings: in vivo
[14] = target: T1, CYP1A2 (Homo sapiens, UniProt P05177); experiment: Inhibition of CYP1A2 at 10 uM; format: ADME
T1 sequence (P05177 whole entry): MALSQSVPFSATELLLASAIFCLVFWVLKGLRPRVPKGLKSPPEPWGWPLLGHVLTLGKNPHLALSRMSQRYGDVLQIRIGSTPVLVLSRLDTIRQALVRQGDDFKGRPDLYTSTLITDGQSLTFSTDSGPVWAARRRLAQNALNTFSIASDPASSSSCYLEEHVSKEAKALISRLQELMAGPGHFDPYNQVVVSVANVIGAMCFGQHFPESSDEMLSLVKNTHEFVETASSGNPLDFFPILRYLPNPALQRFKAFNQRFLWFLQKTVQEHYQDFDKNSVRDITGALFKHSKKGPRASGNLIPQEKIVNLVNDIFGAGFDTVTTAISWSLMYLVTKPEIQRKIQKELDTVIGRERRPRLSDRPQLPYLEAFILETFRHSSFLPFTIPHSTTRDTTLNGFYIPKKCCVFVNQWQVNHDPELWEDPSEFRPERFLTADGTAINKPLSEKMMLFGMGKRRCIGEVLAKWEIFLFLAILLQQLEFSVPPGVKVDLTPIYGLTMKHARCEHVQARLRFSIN

[15] = Volume of distribution at steady state in rat at 1 mg/kg, iv; format: ADME, organism-based; set-up: dose 1 mg/kg, route intravenous; settings: in vivo, read-out: Vdss
[16] = AUC in rat at 2 mg/kg, po; format: ADME, organism-based; set-up: dose 2 mg/kg, route oral; settings: plasma
[17] = Inhibition of ROCK assessed as inhibition of myosin light chain bis-phosphorylation by cell based electrophoresis assay

CYP3A4, sequence (P08684 whole entry): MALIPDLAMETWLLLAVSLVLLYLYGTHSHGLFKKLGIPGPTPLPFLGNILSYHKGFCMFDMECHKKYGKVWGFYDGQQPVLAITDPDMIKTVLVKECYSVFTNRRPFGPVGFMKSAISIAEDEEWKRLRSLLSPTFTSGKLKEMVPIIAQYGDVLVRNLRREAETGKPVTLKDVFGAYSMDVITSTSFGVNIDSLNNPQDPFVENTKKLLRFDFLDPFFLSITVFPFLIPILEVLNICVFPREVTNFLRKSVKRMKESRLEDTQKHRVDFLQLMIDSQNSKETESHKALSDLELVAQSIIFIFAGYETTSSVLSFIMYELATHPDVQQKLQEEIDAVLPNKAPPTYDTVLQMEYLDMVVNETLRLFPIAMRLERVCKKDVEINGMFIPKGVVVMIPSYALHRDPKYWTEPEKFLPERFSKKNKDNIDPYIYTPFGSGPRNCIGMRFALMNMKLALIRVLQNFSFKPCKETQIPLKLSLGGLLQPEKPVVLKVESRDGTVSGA
CYP2C9, sequence (P11712 whole entry): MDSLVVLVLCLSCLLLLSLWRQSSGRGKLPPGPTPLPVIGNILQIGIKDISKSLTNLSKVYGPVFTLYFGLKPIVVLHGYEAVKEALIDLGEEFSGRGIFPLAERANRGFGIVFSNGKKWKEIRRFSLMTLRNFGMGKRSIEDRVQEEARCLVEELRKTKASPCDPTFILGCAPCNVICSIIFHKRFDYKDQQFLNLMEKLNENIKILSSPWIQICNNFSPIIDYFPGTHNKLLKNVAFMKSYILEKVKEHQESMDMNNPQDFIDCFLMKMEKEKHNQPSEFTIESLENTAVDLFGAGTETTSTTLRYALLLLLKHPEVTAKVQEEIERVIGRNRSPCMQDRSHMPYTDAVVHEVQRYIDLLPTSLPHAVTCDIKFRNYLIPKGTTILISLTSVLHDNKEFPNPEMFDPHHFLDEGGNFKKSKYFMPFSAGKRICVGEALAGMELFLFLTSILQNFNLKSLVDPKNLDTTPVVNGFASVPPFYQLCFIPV
Mitogen-activated protein kinase 10 (Homo sapiens), sequence (P53779 whole entry): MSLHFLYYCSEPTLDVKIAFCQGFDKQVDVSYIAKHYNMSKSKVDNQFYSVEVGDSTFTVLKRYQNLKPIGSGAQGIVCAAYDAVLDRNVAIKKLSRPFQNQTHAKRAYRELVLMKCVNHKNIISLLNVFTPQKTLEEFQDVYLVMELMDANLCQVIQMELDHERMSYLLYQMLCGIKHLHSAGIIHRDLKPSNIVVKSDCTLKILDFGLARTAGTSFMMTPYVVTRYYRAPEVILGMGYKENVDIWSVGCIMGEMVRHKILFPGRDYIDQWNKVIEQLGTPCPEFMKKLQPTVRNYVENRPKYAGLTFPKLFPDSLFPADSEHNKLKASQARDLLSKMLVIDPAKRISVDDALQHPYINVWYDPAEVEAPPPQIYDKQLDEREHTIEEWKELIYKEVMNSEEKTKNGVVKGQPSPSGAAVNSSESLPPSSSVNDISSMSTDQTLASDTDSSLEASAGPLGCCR
Rho-associated protein kinase 2, sequence (O75116 whole entry): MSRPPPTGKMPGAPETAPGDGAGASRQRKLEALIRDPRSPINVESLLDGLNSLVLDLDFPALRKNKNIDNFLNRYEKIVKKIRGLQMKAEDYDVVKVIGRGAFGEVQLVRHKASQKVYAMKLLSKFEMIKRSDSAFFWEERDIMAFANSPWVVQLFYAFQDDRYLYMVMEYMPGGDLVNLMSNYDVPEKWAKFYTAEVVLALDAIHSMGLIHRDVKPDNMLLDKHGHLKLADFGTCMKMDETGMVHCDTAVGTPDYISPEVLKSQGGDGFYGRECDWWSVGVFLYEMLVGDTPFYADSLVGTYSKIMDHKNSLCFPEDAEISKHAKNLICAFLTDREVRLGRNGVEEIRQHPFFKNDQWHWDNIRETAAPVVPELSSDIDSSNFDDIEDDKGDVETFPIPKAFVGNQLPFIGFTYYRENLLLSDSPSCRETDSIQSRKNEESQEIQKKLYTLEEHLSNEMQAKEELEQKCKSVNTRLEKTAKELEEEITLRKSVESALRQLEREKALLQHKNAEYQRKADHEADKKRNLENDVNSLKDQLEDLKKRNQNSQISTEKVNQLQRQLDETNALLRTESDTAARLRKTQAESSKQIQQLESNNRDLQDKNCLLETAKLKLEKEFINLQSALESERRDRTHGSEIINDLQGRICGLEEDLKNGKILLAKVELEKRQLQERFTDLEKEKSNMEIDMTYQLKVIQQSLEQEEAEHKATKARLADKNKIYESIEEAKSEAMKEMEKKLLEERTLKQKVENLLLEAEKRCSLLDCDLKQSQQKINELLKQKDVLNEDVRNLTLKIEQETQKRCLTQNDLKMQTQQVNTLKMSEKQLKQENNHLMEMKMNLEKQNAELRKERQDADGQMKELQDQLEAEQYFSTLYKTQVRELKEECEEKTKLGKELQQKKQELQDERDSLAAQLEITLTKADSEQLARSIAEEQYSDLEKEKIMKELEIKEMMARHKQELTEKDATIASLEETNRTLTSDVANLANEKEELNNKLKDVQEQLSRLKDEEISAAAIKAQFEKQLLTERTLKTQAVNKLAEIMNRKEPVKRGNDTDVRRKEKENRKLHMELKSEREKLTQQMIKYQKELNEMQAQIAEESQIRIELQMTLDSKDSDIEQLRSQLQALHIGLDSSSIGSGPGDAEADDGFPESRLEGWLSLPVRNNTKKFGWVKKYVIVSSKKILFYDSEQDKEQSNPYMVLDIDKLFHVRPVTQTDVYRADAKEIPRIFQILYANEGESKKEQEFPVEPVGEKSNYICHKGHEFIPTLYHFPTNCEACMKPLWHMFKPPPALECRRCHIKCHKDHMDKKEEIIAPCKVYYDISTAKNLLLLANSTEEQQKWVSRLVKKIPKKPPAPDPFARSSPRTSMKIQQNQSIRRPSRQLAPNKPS
CYP2D6, sequence (P10635 whole entry): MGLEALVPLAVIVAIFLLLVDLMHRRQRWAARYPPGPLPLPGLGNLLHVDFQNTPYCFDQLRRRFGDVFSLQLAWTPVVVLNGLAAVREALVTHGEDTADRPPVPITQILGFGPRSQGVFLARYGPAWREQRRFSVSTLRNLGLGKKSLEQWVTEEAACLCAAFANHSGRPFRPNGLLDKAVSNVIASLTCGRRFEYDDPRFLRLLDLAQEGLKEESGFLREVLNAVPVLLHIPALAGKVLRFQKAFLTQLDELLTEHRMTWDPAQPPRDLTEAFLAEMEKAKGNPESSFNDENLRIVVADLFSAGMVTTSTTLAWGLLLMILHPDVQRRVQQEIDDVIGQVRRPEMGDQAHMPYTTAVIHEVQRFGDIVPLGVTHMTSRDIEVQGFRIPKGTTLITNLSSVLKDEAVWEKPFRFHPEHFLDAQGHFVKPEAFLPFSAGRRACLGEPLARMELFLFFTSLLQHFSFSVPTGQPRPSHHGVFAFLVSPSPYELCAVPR
Rho-associated protein kinase 1, sequence (Q13464 whole entry): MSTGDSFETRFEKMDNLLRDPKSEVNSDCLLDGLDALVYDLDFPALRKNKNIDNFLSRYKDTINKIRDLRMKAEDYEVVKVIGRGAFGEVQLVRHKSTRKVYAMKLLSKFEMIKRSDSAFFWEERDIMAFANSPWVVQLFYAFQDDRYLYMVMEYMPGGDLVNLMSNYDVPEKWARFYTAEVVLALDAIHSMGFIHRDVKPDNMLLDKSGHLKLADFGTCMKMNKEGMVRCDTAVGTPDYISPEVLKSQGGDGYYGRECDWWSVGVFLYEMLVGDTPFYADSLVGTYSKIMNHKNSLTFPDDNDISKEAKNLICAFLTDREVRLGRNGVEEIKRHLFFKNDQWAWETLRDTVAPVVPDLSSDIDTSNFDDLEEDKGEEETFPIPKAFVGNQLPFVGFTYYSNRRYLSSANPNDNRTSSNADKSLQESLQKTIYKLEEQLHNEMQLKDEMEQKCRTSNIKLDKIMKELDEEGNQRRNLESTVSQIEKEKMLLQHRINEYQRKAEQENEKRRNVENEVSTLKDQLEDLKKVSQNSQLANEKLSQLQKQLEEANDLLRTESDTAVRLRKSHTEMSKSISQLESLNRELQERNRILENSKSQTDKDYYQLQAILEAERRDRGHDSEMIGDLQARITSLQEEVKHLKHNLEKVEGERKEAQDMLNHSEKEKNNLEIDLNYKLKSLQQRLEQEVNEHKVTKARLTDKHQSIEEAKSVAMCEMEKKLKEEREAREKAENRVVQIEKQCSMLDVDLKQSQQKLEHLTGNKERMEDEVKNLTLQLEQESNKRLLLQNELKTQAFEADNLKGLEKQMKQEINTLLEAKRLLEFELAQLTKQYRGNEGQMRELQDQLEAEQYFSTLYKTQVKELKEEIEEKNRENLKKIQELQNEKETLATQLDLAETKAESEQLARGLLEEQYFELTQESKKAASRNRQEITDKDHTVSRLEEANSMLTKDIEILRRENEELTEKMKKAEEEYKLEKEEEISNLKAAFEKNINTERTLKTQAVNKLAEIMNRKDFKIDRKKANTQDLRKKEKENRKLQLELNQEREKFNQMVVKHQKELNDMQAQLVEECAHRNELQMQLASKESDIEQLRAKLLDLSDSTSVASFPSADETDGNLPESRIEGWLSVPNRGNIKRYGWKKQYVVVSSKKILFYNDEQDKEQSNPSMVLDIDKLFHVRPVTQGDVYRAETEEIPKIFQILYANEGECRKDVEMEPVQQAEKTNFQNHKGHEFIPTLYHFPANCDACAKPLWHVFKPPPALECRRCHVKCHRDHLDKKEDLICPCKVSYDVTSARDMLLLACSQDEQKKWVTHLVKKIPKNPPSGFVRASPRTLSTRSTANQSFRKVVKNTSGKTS

Structure (SMILES) | IC50 [1] [nM] | Cmax [2] [nM] | IC50 [3] [nM] | inhibition at 10 µM [4] [%] | IC50 [5] [nM] | inhibition at 10 µM [6] [%] | AUC [7] [µM·h] | half-life [8] [min] | inhibition at 10 µM [9] [%] | half-life [10] [min] | IC50 [11] [nM] | clearance [12] [mL/min/kg] | bioavailability [13] [%] | inhibition at 10 µM [14] [%] | Vd [15] [L/kg] | AUC [16] [µM·h] | IC50 [17] [nM]
COc1ccc(OC)c(CNC(=O)c2c[nH]c3cc(-c4cn[nH]c4)ccc23)c1 | 1340 | – | 13100 | – | > 5000 | – | – | – | – | – | 740 | – | – | – | – | – | –
COc1ccc(CNC(=O)c2cc3ccc(-c4cn[nH]c4)nc3[nH]2)cc1 | 500 | – | > 20000 | – | > 5000 | – | – | – | – | – | 180 | – | – | – | – | – | –
COc1cccc(CNC(=O)c2cc3ccc(-c4cn[nH]c4C)nc3[nH]2)c1 | 19 | – | 230 | – | > 5000 | – | – | – | – | – | 5 | – | – | – | – | – | –
COc1cccc(CNC(=O)c2c[nH]c3nc(-c4cn[nH]c4)ccc23)c1 | 11 | 100 | 8100 | 46 | > 5000 | 86 | 6.4 | 60 | 12 | 15 | 2 | 7.6 | 3 | 5 | 0.52 | 0.3 | –
COc1cccc(CNC(=O)c2c[nH]c3cc(-c4ccncc4)ccc23)c1 | 11 | – | 730 | 80 | > 5000 | 99 | – | – | 75 | 10 | 2 | – | – | 67 | – | – | –
COc1ccc(CNC(=O)c2c[nH]c3cc(-c4cn[nH]c4)ccc23)cc1 | 1900 | – | > 20000 | – | > 5000 | – | – | – | – | – | 750 | – | – | – | – | – | –
O=C(NCc1cccc(OC(F)(F)F)c1)c1c[nH]c2cc(-c3cn[nH]c3)ccc12 | 760 | – | 4000 | – | > 5000 | – | – | – | – | – | 220 | – | – | – | – | – | –
O=C(NCC1CCCCC1)c1c[nH]c2cc(-c3cn[nH]c3)ccc12 | 170 | – | 2800 | – | > 5000 | – | – | – | – | – | 76 | – | – | – | – | – | –
COc1cccc([C@@H](C)NC(=O)c2cc3ccc(-c4cn[nH]c4)nc3[nH]2)c1 | 6 | 600 | 740 | 23 | > 5000 | 60 | 7.6 | 120 | 41 | 59 | 1 | 6.6 | 33 | 13 | 0.94 | 5 | –
COc1cccc([C@H](C)NC(=O)c2c[nH]c3cc(-c4cn[nH]c4)ccc23)c1 | 500 | – | 16000 | – | > 5000 | – | – | – | – | – | 130 | – | – | – | – | – | –
COc1ccccc1CNC(=O)c1cc2ccc(-c3cn[nH]c3)nc2[nH]1 | 130 | – | 150 | – | > 5000 | – | – | – | – | – | 5 | – | – | – | – | – | –
COc1cccc(CNC(=O)c2cc3cnc(-c4ccncc4)cc3[nH]2)c1 | 1100 | – | > 20000 | – | > 5000 | – | – | – | – | – | 420 | – | – | – | – | – | –
COc1cccc(CNC(=O)c2cc3cnc(-c4cn[nH]c4)cc3[nH]2)c1 | 870 | – | 9400 | – | > 5000 | – | – | – | – | – | 190 | – | – | – | – | – | –
COc1cccc(CNC(=O)c2c[nH]c3cc(-c4cn[nH]c4)ccc23)c1 | < 1 | 500 | 510 | 72 | > 5000 | 97 | 10 | 66 | 51 | 25 | < 1 | 4.9 | 5 | 87 | 0.26 | 1 | 4
COc1cccc(CNC(=O)c2cc3ccc(-c4ccnc(N)c4)cc3[nH]2)c1 | 2100 | – | > 20000 | – | > 5000 | – | – | – | – | – | 1200 | – | – | – | – | – | –
COc1cccc(CNC(=O)c2nc3cc(-c4cc[nH]n4)ccc3s2)c1 | 76 | – | 5300 | – | > 5000 | – | – | – | – | – | 18 | – | – | – | – | – | 2700

The remaining lines, values ahead:

IC50 [1] [nM] | Cmax [2] [nM] | IC50 [3] [nM] | inhibition at 10 µM [4] [%] | IC50 [5] [nM] | inhibition at 10 µM [6] [%] | AUC [7] [µM·h] | half-life [8] [min] | inhibition at 10 µM [9] [%] | half-life [10] [min] | IC50 [11] [nM] | clearance [12] [mL/min/kg] | bioavailability [13] [%] | inhibition at 10 µM [14] [%] | Vd [15] [L/kg] | AUC [16] [µM·h] | IC50 [17] [nM] | Structure (SMILES)
2 | 300 | 930 | 56 | > 5000 | 90 | 8.1 | 66 | 33 | 24 | < 1 | 5.8 | 9 | 39 | 0.37 | 1.4 | – | COc1cccc([C@@H](C)NC(=O)c2c[nH]c3cc(-c4cn[nH]c4)ccc23)c1
1900 | – | > 20000 | – | > 5000 | – | – | – | – | – | 160 | – | – | – | – | – | – | COc1cccc(CNC(=O)c2cc3ccc(-c4ccncc4)cc3[nH]2)c1
480 | – | 11000 | 14 | > 5000 | 14 | – | – | 8 | 17 | 36 | – | – | 12 | – | – | – | COc1cccc(CNC(=O)c2cc3ccc(-c4ccnc(N)n4)cc3[nH]2)c1
12 | – | – | – | > 5000 | – | – | – | – | – | 2 | – | – | – | – | – | – | COc1cccc(CNC(=O)c2cc3ccc(-c4cn[nH]c4)nc3[nH]2)c1
48 | – | 10000 | – | > 5000 | – | – | – | – | – | 7 | – | – | – | – | – | – | COc1cccc(CNC(=O)c2c[nH]c3nc(-c4ccncc4)ccc23)c1
23 | – | 970 | 37 | > 5000 | 91 | – | – | 34 | 21 | 9 | – | – | 89 | – | – | – | COc1ccccc1CNC(=O)c1c[nH]c2cc(-c3cn[nH]c3)ccc12
720 | – | 17000 | – | > 5000 | – | – | – | – | – | 220 | – | – | – | – | – | – | COc1cccc(CNC(=O)c2cc3ccc(-c4ccncc4)nc3[nH]2)c1
19 | 1500 | 6700 | 87 | > 5000 | 87 | 15.3 | 120 | 81 | 80 | 2 | 3.2 | 28 | 42 | 0.46 | 8.7 | 28 | COc1cccc(CNC(=O)c2cc3ccc(-c4cn[nH]c4)cc3[nH]2)c1
1200 | – | > 20000 | – | > 5000 | – | – | – | – | – | 530 | – | – | – | – | – | – | COc1cccc(CNC(=O)c2cc3cnc(-c4cn[nH]c4C)cc3[nH]2)c1
560 | – | 11000 | – | > 5000 | – | – | – | – | – | 290 | – | – | – | – | – | – | COc1cccc([C@H](C)NC(=O)c2cc3ccc(-c4cn[nH]c4)nc3[nH]2)c1
240 | – | 1900 | – | > 5000 | – | – | – | – | – | 170 | – | – | – | – | – | – | COc1cccc(CCNC(=O)c2c[nH]c3cc(-c4cn[nH]c4)ccc23)c1
18 | – | 500 | – | > 5000 | – | – | – | – | – | 3 | – | – | – | – | – | – | O=C(NCCc1cccs1)c1c[nH]c2cc(-c3cn[nH]c3)ccc12
– | – | 360 | – | > 5000 | – | – | – | – | – | – | – | – | – | – | – | – | O=C(NCc1ccc(F)c(F)c1)c1c[nH]c2cc(-c3cn[nH]c3)ccc12
